Test results from US7041639B2, “Depsipeptide and congeners thereof for use as immunosuppressants” (XCYTE Therapies, Inc., priority 1999, dated 2006).

Key:
CD4 cells = test: Proliferation by MTT assay, purified CD4 cell cultures; type: cell-based, human; conditions: for concentration with no significant effect on proliferation of CD4 cells / lowest concentration that completely inhibits proliferation of CD4 cells: MTT day 3; for lowest concentration that completely inhibits proliferation of CD4 cells: 2 hour incubation prior to stimulation
Protocol: Cells isolated from human blood are grown in X-vivo media (Biowhittaker Inc., Walkersville, Md.) and depending on use supplemented with or without 20 U/ml IL-2 (Boehringer Mannheim, Indianapolis, Ind.) and supplemented with 5% human serum (Biowhittaker), 2 mM Glutamine (Life Technologies, Rockville, Md.) and 20 mM HEPES (Life Technology). Jurkat E6-1 cells (ATCC, Manassas, Va.) are grown in RPMI 1640 (Life Technologies) supplemented with 10% fetal bovine serum (FBS) (Biowhittaker), 2 mM glutamine (Life Technologies), […] (Life Technologies), and […] (Life Technologies).
Buffy coats from healthy human volunteer donors are obtained (American Red Cross, Portland, Oreg.). Peripheral blood mononuclear cells (PBMC) are obtained using Lymphocyte Separation Media (ICN Pharmaceuticals, Costa Mesa, Calif.) according to the manufacturers' instructions.
Peripheral blood lymphocytes (PBL) are obtained from the PBMC fraction by incubation in a culture flask (Costar, Pittsburgh, Pa.) or with uncoated Dynabeads (Dynal, Oslo, Norway), 1×10^8 cells/ml, 2 beads/cell, 2 h at 37° C. Monocytes and macrophages are removed by adherence to the culture flask or phagocytoze the paramagnetic beads that are depleted by magnetic cell separation according to the manufacture's instruction (Dynal). CD4 cells are purified from the PBL fraction by incubation with 10 μg/ml of monoclonal antibodies against CD8 (clone G10-1), CD20 (clone IF5), CD14 (clone F13) and CD16 (Coulter), 10^8 cells/ml, 20 min at 4° C. After washing, cells are depleted twice with sheep anti-mouse Ig-coupled dynabeads (10^6 cells/ml, 6 beads/cell, 20 min at 4° C.) and magnetic cell separation. The purity of CD4 cells are routinely 91–95% as measured by flow cytometry.
Dendritic cells are generated from PBMC adhering to the culture flask (Costar), 10^8 cells/ml, 2 h at 37° C. (without Dynabeads). After extensive washing, adherent cells are cultured for 7 days in media containing 500 U/ml GM-CSF (Boehringer-Mannheim) and 12.5 U/ml IL-4 (Boehringer-Mannheim). The resulting cell population is weakly adherent and expresses surface markers characteristic of dendritic cells (positive for HLA-DR, CD86, CD83, CD11c and negative for CD4). (note:all antibodies obtained from Becton Dickinson, Calif.).
(§1) Cells are stimulated by three different methodologies 1) Dynabeads (M-450) covalently coupled to anti-CD3 (OKT-3) and anti-CD28 (9.3) antibodies (3×28 beads) according to the manufacturer's instructions (Dynal), 3 beads/cell, 2) Ionomycin (Calbiochem, La Jolla, Calif.) (100 ng/ml) and phorbol 12-myristate-13-acetate (PMA) (Calbiochem) (10 ng/ml), 3) allogeneic dendritic cells (25,000 dendritic cells/200,000 CD4 cells). All cells are stimulated at a concentration of 1×10^6 cells/ml. Cells are incubated with compounds of structure (I) (e.g., FR901228) (NCI, Bethesda, Md.) for 1 to 2 hours prior to stimulation as outlined above. Proliferation assays are conducted in quadruplicate in 96 well flat-bottom plates. Cells are stimulated at 1×10^6 cells/ml in a final volume of 200 μl. Proliferation is measured by MTT assay (MTT assay kit, Chemicon International Inc., Temecula, Calif.) at day 3 (stimulation method 1 and 2) or at day 6 (stimulation method 3), and results are presented as mean value of quadruplicates. PBL cultures or purified CD4 cell cultures are stimulated with 3×28 beads, ionomycin/PMA or allogenic dendritic cells. […] Further, […] cell survival is not affected by FR901228, as assessed by sub-G1 DNA measurement and integrity of the cell membrane (FIG. 5D). Lack of cytotoxicity of FR901228 is in agreement with results described by Byrd et al, Blood 94(4):1401–1408, 1999; Bates et al., Clinical Pharmacology, Programs and Proceedings of American Society of Clinical Oncology, Abstract 693, 1999; and Chassaing et al., J. Chrmatogr. B 719:169–176, 1998.

T-cells = test: Cell survival / viability (sub-G1 DNA, membrane integrity, propidium iodide exclusion); type: cell-based, human
Protocol: as §1, with “Lack of cytotoxicity of FR901228 is in agreement with results described by Byrd et al, Blood 94(4):1401–1408, 1999; Bates et al., Clinical Pharmacology, Programs and Proceedings of American Society of Clinical Oncology, Abstract 693, 1999; and Chassaing et al., J. Chrmatogr. B 719:169–176, 1998.” left out

[1] = test system: CD154 promoter in Jurkat T-cells; test: GFP reporter under control of the CD154 promoter; type: cell-based; conditions: 24 hours 3×28 beads; 0, 10, 50, 100 ng/ml; FIG. 11
Protocol: In this experiment Jurkat T-cells were stabily transfected with a vector construct (p-EGFP1, Clonetech) wherein the nucleotide sequence encoding green fluorescent protein was operably linked to the CD154 promoter cloned from Jurkat cells. Following selection of cells containing the vector of interest, the cells were subjected to stimulation for 24 hours with 3×28 beads in the presence of varying concentrations (0 to 100 ng/ml) of FR901228. Fluorescence was then detected using flow cytometry.

bulk phosphorylation = test: Phosphotyrosine Western blots; type: cell-based
Source text: FR901228 has a number of features that aid its ability to act as a potent immunosuppressant. […] Thus, these observations indicate that compounds of structure (I) affect the T-cell activation pathway at multiple points, thus allowing activation to proceed into early stages, such as phosphorylation, but preventing subsequent events of activation and proliferation.

SMILES: C/C=C1\NC(=O)[C@H]2CSSCC/C=C/[C@H](CC(=O)N[C@H](C(C)C)C(=O)N2)OC(=O)[C@H](C(C)C)NC1=O [FR901228]
- concentration with no significant effect on proliferation of CD4 cells (CD4 cells; 3×28 beads): ≤ 1 ng/mL
- lowest concentration that completely inhibits proliferation of CD4 cells (CD4 cells; 3×28 beads): 10 ng/mL
- T-cell proliferation on addition of IL-2 (CD4 cells; addition of 100 U/ml IL-2): will not restore proliferation
- lowest concentration that significantly inhibits proliferation induced by allogenic dendritic cells (CD4 cells; allogenic dendritic cells, MTT day 6): 1 ng/ml
- concentration with no significant effect on proliferation of CD4 cells (CD4 cells; ionomycin/PMA): ≤ 1 ng/mL
- lowest concentration that completely inhibits proliferation of CD4 cells (CD4 cells; ionomycin/PMA): 10 ng/mL
- inhibition of CD4 positive T-cell proliferation (CD4 cells; stimulation by anti-CD3/anti-CD28 beads, FIG. 3): dose dependent inhibition
- inhibition of CD4 positive T-cell proliferation (CD4 cells; stimulation with in vitro generated allogenic dendritic cells, FIG. 4): dose dependent inhibition
- cell survival by sub-G1 DNA measurement and integrity of the cell membrane (T-cells; FIG. 5D): not affected
- cell viability by propidium iodide (PI) exclusion (T-cells; concentrations up to 100 ng/ml): not significantly affected
- induction of GFP expression under CD154 promoter [1]: only cells having 0 ng/ml of FR901228 showed induction of GFP expression
- bulk phosphorylation (bulk phosphorylation): does not affect
